# Laboratory results taken from patent US6737383B1, “Herbicidal oxadiazolidines” (priority 1999, dated 2004).
# Key:
# [1] = tested on: corn; test: Test B pre/postemergence corn; type: in vivo, Zea mays
# Outline: (§1)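 Response is a visual 0-to-10 score relative to untreated plants, where 0 means no effect and 10 means complete control, taken twelve to sixteen days after application. Treatments went onto soil at planting and onto foliage of 1- to 4-leaf plants, using a surfactant-containing non-phytotoxic solvent.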
# [2] = tested on: wheat; test: Test B pre/postemergence wheat; type: in vivo, Triticum aestivum
# Outline: as §1
# [3] = tested on: purple nutsedge; test: Test B pre/postemergence purple nutsedge; type: in vivo, Cyperus rotundus
# Outline: as §1
# [4] = tested on: sugar beet; test: Test B pre/postemergence sugar beet; type: in vivo, Beta vulgaris
# Outline: as §1
# [5] = tested on: giant foxtail; test: Test B pre/postemergence giant foxtail; type: in vivo, Setaria faberii
# Outline: as §1
# [6] = tested on: pigweed; test: Test B pre/postemergence pigweed; type: in vivo, Amaranthus retroflexus
# Outline: as §1
# [7] = tested on: soybean; test: Test B pre/postemergence soybean; type: in vivo, Glycine max
# Outline: as §1
# [8] = tested on: cocklebur; test: Test B pre/postemergence cocklebur; type: in vivo, Xanthium strumarium
# Outline: as §1
# [9] = tested on: bedstraw; test: Test B pre/postemergence bedstraw; type: in vivo, Galium aparine; settings: Postemergence
# Outline: as §1
# [10] = tested on: velvetleaf; test: Test B pre/postemergence velvetleaf; type: in vivo, Abutilon theophrasti
# Outline: as §1
# [11] = tested on: wild oat; test: Test B pre/postemergence wild oat; type: in vivo, Avena fatua
# Outline: as §1
# [12] = tested on: bamyardgrass; test: Test B flood test barnyardgrass; type: in vivo, Echinochloa crus-galli; settings: for Plant response rating, Barnyardgrass: scale 0 to 10, 0 is no effect, 10 is complete control; for Barnyardgrass plant response rating: scale of 0 to 10 where 0 is no effect and 10 is complete control
# Outline: (§2)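 Plants were grown to the 2-leaf stage before treatment with test chemical, then held in a greenhouse for twelve to sixteen days. Injury was visually rated against untreated controls on a 0–10 scale, where 0 is no effect and 10 is complete control.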
# [13] = tested on: duck salad; test: Test B flood test duck salad; type: in vivo, Heteranthera limosa; settings: for Plant response rating, Ducksalad: scale 0 to 10, 0 is no effect, 10 is complete control; for Ducksalad plant response rating: scale of 0 to 10 where 0 is no effect and 10 is complete control
# Outline: as §2
# [14] = tested on: blackgrass; test: Test B pre/postemergence blackgrass; type: in vivo, Alopecurus myosuroides
# Outline: as §1
# [15] = tested on: crabgrass; test: Test B pre/postemergence crabgrass; type: in vivo, Digitaria sanguinalis
# Outline: as §1
# [16] = tested on: surinam grass; test: Test B pre/postemergence surinam grass; type: in vivo, Brachiaria decumbens
# Outline: as §1
# [17] = tested on: morningglory; test: Test B pre/postemergence morningglory; type: in vivo, Ipomoea hederacea
# Outline: as §1
# [18] = tested on: smallflower flatsedge; test: Test B flood test smallflower flatsedge; type: in vivo, Cyperus difformis
# Outline: as §2
# [19] = tested on: rape; test: Test B pre/postemergence rape; type: in vivo, Brassica napus
# Outline: as §1
# [20] = tested on: rice; test: Test B flood test rice; type: in vivo, Oryza sativa
# Outline: as §2
# [21] = Postemergence, Rate 125 g/ha, scale 0 to 10, 0 is no effect, 10 is complete control
# [22] = Postemergence, Rate 250 g/ha, scale 0 to 10, 0 is no effect, 10 is complete control
# [23] = Postemergence, Rate 500 g/ha, scale of 0 to 10 where 0 is no effect and 10 is complete control
# [24] = Preemergence, Rate 62 g/ha, scale 0 to 10 (0 no effect, 10 complete control)
# [25] = Preemergence, Rate 125 g/ha, scale of 0 to 10 where 0 is no effect and 10 is complete control
# [26] = Preemergence, Rate 250 g/ha, scale 0 to 10, 0 is no effect, 10 is complete control
# [27] = Preemergence, Rate 500 g/ha, scale 0 to 10, 0 is no effect, 10 is complete control
# [28] = Rate 62 g/ha, Postemergence, scale of 0 to 10 where 0 is no effect and 10 is complete control
# [29] = Postemergence (flood test), Rate 125 g/ha
# [30] = Postemergence section (flood test species), Rate 500 g/ha
# [31] = Rate 62 g/ha, Postemergence (flood test species)
# [32] = flood test species, listed under Postemergence, Rate 250 g/ha
# [33] = Preemergence, Rate 250 g/ha, scale of 0 to 10 where 0 is no effect and 10 is complete control
# [34] = Postemergence section (flood test species), Rate 500 g/ha, scale of 0 to 10 where 0 is no effect and 10 is complete control
# [35] = flood test species, listed under Postemergence, Rate 250 g/ha, scale 0 to 10, 0 is no effect, 10 is complete control
structure (smiles),measurement,setting,value
CC(C)N(C(=O)n1oc(=O)n(C2CCOCC2)c1=O)c1ccccc1 [Compound 416],"Plant response rating, Corn",[1]; [21],0
same,"Plant response rating, Corn",[1]; [22],5
same,Corn plant response rating,[1]; [23],7
same,"Plant response rating, Corn",[1]; [24],0
same,"Plant response rating, Corn",[1]; [25],0
same,Corn plant response rating,[1]; [26],3
same,Corn plant response rating,[1]; [27],6
same,Corn plant response rating,[1]; [28],0
same,Wheat plant response rating,[2]; [23],7
same,"Plant response rating, Wheat",[2]; [24],2
same,"Plant response rating, Wheat",[2]; [25],4
same,Wheat plant response rating,[2]; [26],7
same,Wheat plant response rating,[2]; [27],10
same,"Plant response rating, Nutsedge",[3]; [22],0
same,Nutsedge plant response rating,[3]; [23],0
same,"Plant response rating, Nutsedge",[3]; [24],0
same,"Plant response rating, Nutsedge",[3]; [25],0
same,Nutsedge plant response rating,[3]; [26],3
same,Nutsedge plant response rating,[3]; [27],4
same,"Plant response rating, Sugarbeets",[4]; [22],0
same,Sugarbeets plant response rating,[4]; [23],2
same,"Plant response rating, Sugarbeets",[4]; [24],3
same,"Plant response rating, Sugarbeets",[4]; [25],4
same,Sugarbeets plant response rating,[4]; [26],7
same,Sugarbeets plant response rating,[4]; [27],9
same,"Plant response rating, Giant foxtail",[5]; [21],8
same,"Plant response rating, Giant foxtail",[5]; [22],9
same,Giant foxtail plant response rating,[5]; [23],9
same,"Plant response rating, Giant foxtail",[5]; [24],8
same,"Plant response rating, Giant foxtail",[5]; [25],10
same,Giant foxtail plant response rating,[5]; [26],10
same,Giant foxtail plant response rating,[5]; [27],10
same,Giant foxtail plant response rating,[5]; [28],7
same,"Plant response rating, Redroot pigweed",[6]; [22],2
same,Redroot pigweed plant response rating,[6]; [23],7
same,"Plant response rating, Redroot pigweed",[6]; [24],7
same,"Plant response rating, Redroot pigweed",[6]; [25],9
same,Redroot pigweed plant response rating,[6]; [26],10
same,Redroot pigweed plant response rating,[6]; [27],10
same,"Plant response rating, Soybean",[7]; [22],6
same,Soybean plant response rating,[7]; [23],7
same,"Plant response rating, Soybean",[7]; [24],0
same,"Plant response rating, Soybean",[7]; [25],4
same,Soybean plant response rating,[7]; [26],7
same,Soybean plant response rating,[7]; [27],9
same,"Plant response rating, Cocklebur",[8]; [21],0
same,"Plant response rating, Cocklebur",[8]; [22],0
same,Cocklebur plant response rating,[8]; [23],5
same,"Plant response rating, Cocklebur",[8]; [24],0
same,"Plant response rating, Cocklebur",[8]; [25],0
same,Cocklebur plant response rating,[8]; [26],0
same,Cocklebur plant response rating,[8]; [27],4
same,Cocklebur plant response rating,[8]; [28],0
same,"Plant response rating, Bedstraw","[9]; Rate 125 g/ha, scale 0 to 10, 0 is no effect, 10 is complete control",3
same,Bedstraw plant response rating,"[9]; Rate 500 g/ha, scale of 0 to 10 where 0 is no effect and 10 is complete control",7
same,"Plant response rating, Velvetleaf",[10]; [22],0
same,Velvetleaf plant response rating,[10]; [23],6
same,"Plant response rating, Velvetleaf",[10]; [24],0
same,"Plant response rating, Velvetleaf",[10]; [25],3
same,Velvetleaf plant response rating,[10]; [26],6
same,Velvetleaf plant response rating,[10]; [27],8
same,Wild oats plant response rating,[11]; [23],7
same,"Plant response rating, Wild oats",[11]; [24],6
same,"Plant response rating, Wild oats",[11]; [25],7
same,Wild oats plant response rating,[11]; [26],8
same,Wild oats plant response rating,[11]; [27],10
same,"Plant response rating, Barnyardgrass",[12]; [29],0
same,Barnyardgrass plant response rating,[12]; [30],0
same,Barnyardgrass plant response rating,[12]; [31],0
same,"Plant response rating, Barnyardgrass",[12]; [32],0
same,"Plant response rating, Ducksalad",[13]; [29],0
same,Ducksalad plant response rating,[13]; [30],0
same,Ducksalad plant response rating,[13]; [31],0
same,"Plant response rating, Ducksalad",[13]; [32],0
same,"Plant response rating, Blackgrass",[14]; [21],9
same,"Plant response rating, Blackgrass",[14]; [22],9
same,Blackgrass plant response rating,[14]; [23],9
same,"Plant response rating, Blackgrass",[14]; [24],8
same,"Plant response rating, Blackgrass",[14]; [25],9
same,Blackgrass plant response rating,[14]; [33],10
same,Blackgrass plant response rating,[14]; [27],10
same,Blackgrass plant response rating,[14]; [28],6
same,"Plant response rating, Crabgrass",[15]; [21],6
same,"Plant response rating, Crabgrass",[15]; [22],9
same,Crabgrass plant response rating,[15]; [23],9
same,"Plant response rating, Crabgrass",[15]; [24],7
same,"Plant response rating, Crabgrass",[15]; [25],10
same,Crabgrass plant response rating,[15]; [26],10
same,Crabgrass plant response rating,[15]; [27],10
same,Crabgrass plant response rating,[15]; [28],2
same,"Plant response rating, B. signalgrass",[16]; [21],6
same,"Plant response rating, B. signalgrass",[16]; [22],8
same,B. signalgrass plant response rating,[16]; [23],9
same,"Plant response rating, B. signalgrass",[16]; [24],7
same,"Plant response rating, B. signalgrass",[16]; [25],7
same,B. signalgrass plant response rating,[16]; [33],7
same,B. signalgrass plant response rating,"[16]; Preemergence, Rate 500 g/ha, scale of 0 to 10 where 0 is no effect and 10 is complete control",9
same,B. signalgrass plant response rating,[16]; [28],2
same,"Plant response rating, Morningglory",[17]; [22],9
same,Morningglory plant response rating,[17]; [23],9
same,"Plant response rating, Morningglory",[17]; [24],0
same,"Plant response rating, Morningglory",[17]; [25],4
same,Morningglory plant response rating,[17]; [26],6
same,Morningglory plant response rating,[17]; [27],8
same,S. Flatsedge plant response rating,[18]; [34],0
same,"Plant response rating, S. Flatsedge",[18]; [35],0
same,"Plant response rating, Rape",[19]; [22],3
same,Rape plant response rating,[19]; [23],3
same,"Plant response rating, Rape",[19]; [24],7
same,"Plant response rating, Rape",[19]; [25],9
same,Rape plant response rating,[19]; [26],9
same,Rape plant response rating,[19]; [27],10
same,Rice plant response rating,[20]; [34],0
same,"Plant response rating, Rice",[20]; [35],0
